In general, fraction unbound refers to free concentration divided by total concentration. In general, Ki refers to the dissociation constant of the complex between target and ligand, obtained from inhibition or displacement. Broadly, the bioavailability is the share of a dose that reaches the circulation, judged against a reference dose that is usually intravenous. A higher bioavailability goes with good availability. For orientation: Cmax means the peak of the concentration-time curve.

Data set [1] deals with Rattus norvegicus. Kind of data set: Hypnotic activity in CD rat Circadian time model assessed as non-rapid eye movement sleep at 30 mg/kg, po administered during active phase measured from starting time CT18 (reference value: 78.1 +/- 11.3 mins). Format: functional.
Data set [2] in a line: Fraction unbound in CD rat brain at 1 mg/kg, iv after 1 hrs. The format is ADME, organism-based. The arrangement: dose 1 mg/kg, route intravenous.
Data set [3] deals with T1, Orexin/Hypocretin receptor type 1 (Rattus norvegicus, UniProt P56718).
T1 sequence (P56718 whole entry): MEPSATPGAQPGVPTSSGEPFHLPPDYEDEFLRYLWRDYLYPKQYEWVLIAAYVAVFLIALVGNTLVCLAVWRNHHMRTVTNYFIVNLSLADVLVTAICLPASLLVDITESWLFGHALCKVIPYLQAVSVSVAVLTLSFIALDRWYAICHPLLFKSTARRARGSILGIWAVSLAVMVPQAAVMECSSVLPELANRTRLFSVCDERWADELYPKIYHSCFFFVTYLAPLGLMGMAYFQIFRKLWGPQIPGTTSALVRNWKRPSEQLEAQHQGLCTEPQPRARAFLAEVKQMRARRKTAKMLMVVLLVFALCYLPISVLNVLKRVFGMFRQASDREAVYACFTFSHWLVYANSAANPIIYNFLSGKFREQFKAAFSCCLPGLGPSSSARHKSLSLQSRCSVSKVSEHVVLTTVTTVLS
Nature of the data set: Antagonist activity at recombinant rat OX1R expressed in CHO cells by FLIPR calcium based functional assay. Format: cell-based.

Data set [4] deals with T2, Orexin receptor type 2 (Rattus norvegicus, UniProt P56719).
T2 sequence (P56719 whole entry): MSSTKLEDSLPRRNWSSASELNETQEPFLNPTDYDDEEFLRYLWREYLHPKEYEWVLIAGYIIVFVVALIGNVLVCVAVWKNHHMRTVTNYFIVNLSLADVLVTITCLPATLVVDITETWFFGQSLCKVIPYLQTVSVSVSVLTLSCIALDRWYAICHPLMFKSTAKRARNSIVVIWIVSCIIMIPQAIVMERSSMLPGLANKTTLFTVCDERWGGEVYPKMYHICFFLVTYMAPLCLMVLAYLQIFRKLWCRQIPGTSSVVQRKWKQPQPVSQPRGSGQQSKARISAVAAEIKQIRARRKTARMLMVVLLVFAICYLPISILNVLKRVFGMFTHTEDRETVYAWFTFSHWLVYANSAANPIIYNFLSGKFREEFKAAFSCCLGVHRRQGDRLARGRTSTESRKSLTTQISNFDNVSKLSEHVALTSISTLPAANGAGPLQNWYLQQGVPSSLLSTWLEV
Kind of data set: Antagonist activity at recombinant rat OX2R expressed in CHO cells by FLIPR calcium based functional assay. The format is cell-based.

Data set [5] can be described thus: Ratio of drug level in brain to blood in CD rat at 1 mg/kg, iv after 1 hrs. The format is ADME, organism-based. Details: dose 1 mg/kg, route intravenous. Conditions: read-out: BBR.
Data set [6] in a line: Oral bioavailability in CD rat at 3 mg/kg. The format is ADME, organism-based. Conditions: in vivo.
Data set [7] addresses T3, Orexin/Hypocretin receptor type 1 (Homo sapiens, UniProt O43613).
T3 sequence (O43613 whole entry): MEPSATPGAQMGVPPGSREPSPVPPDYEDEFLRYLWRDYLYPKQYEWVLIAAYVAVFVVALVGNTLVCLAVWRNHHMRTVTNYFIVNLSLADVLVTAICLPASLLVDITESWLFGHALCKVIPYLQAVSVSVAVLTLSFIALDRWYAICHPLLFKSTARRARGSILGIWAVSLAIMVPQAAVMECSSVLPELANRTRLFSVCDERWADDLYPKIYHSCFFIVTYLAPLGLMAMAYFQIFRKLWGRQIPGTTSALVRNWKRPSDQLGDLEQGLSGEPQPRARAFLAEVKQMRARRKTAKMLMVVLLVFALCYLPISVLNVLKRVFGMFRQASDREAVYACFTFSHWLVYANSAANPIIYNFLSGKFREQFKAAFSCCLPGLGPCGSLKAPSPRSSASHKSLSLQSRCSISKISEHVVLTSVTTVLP
Kind of data set: Displacement of [3H]almorexant from recombinant human OX1R expressed in CHO cells. The format is cell-based. In general terms: Displacement assays read how much labelled ligand stays bound in the presence of the test substance.

Data set [8] concerns Rattus norvegicus. Nature of the data set: Hypnotic activity in CD rat Circadian time model assessed as awake period at 10 mg/kg, po administered during active phase measured from starting time CT18 (reference value: 218 +/- 11.32 mins). The format is functional.
Data set [9] concerns Rattus norvegicus. Kind of data set: Hypnotic activity in CD rat Circadian time model assessed as rapid eye movement sleep at 3 mg/kg, po administered during active phase measured from starting time CT18 (reference value: 3.22 +/- 0.73 mins). The format is functional.
In data set [10] the test system is Rattus norvegicus. Nature of the data set: Hypnotic activity in CD rat Circadian time model assessed as rapid eye movement latency period at 10 mg/kg, po administered during active phase measured from starting time CT18 (reference value: 146.3 +/- 54.2 mins). The format is functional.
Data set [11] concerns Rattus norvegicus. Kind of data set: In vivo antagonist activity at OX1R in CD rat assessed as reduction of OX-A induced grooming dosed orally 3 hrs before OX-A injection measured after 1 hrs. The format is functional, organism-based.
Data set [12] has as its target T4, Orexin receptor type 2 (Homo sapiens, UniProt O43614).
T4 sequence (O43614 whole entry): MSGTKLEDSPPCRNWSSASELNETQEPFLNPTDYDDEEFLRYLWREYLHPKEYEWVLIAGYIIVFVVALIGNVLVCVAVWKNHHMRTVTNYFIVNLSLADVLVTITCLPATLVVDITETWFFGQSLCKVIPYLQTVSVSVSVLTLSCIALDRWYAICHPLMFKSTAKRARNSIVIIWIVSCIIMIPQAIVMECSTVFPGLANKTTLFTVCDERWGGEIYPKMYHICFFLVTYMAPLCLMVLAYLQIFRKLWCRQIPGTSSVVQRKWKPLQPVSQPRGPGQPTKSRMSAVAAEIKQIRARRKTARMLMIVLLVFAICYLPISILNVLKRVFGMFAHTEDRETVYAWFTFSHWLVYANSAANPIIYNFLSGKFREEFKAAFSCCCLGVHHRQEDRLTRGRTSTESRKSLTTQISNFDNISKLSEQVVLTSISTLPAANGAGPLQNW
Nature of the data set: Displacement of [3H]almorexant from recombinant human OX2R expressed in CHO cells. The format is cell-based.

The subject of data set [13] is Rattus norvegicus. Kind of data set: Hypnotic activity in po dosed CD rat Circadian time model assessed as rapid eye movement sleep administered during active phase measured from starting time CT18. The format is functional, organism-based.
Data set [14] in a line: Cmax in CD rat at 1 mg/kg, iv and 3 mg/kg, po. The format is ADME, organism-based. Conditions: in vivo.

As to `Cc1nc(C(=O)N2CCCC[C@H]2CNC(=O)c2cccc3occc23)c(-c2ccc(F)cc2)s1` [SB-649868], the Time in the data set with Rattus norvegicus [1] stood at 186.6 min; in the data set with Rattus norvegicus [8], 117 min; with Rattus norvegicus [9], 6.5 min; with Rattus norvegicus [10] it was 26.6 min. Besides, the fraction unbound at 1 h in [2] was 0.0528. Besides, the Ki in [3] is 117 pM; at Orexin receptor type 2 [4] it was 77.6 pM; in data set [7], 759 pM; at Orexin receptor type 2 [12] it was 1290 pM. In data set [5], the Kp at 1 h stood at 0.1. In data set [6], this compound yielded a bioavailability of 85%. In addition, the Activity entry with Rattus norvegicus [11] and in the data set with Rattus norvegicus [13] was “Dose-dependent effect” each time. In addition, in data set [14], the Cmax amounted to 333 ng/mL.
